The test system of data set [1] is Gbe1^ys/ys mice. Nature of the data set: Lifespan and disease signs of Gbe1^ys/ys mice on guaiacol in drinking water. The data set is classed as in vivo, mouse. As for the experimental part: FIG. 9 is a Kaplan-Meier plot which illustrates the incidence of death in Gbe1^ys/ys (n=47), versus wild type mice (n=29), and guaiacol-treated Gbe1^ys/ys and wild type mice (n=4 each).
(§1) Mice were treated with guaiacol in drinking water for 12 months every other day by preparing fresh guaiacol solution in water (3.8 g/liter or 3.1 ml/liter) considering the fact that an adult mouse drinks 6 ml water every day (Bachamov et al. 2002).
Treated Gbe1^ys/ys mice lived up to 24 months at time they were sacrificed as required by the protocol (FIG. 9).

In data set [2] the test system is Gbe1^ys/ys mice. Nature of the data set: Tissue glycogen content in treated wild type and Gbe1^ys/ys mice. The data set is classed as in vivo, mouse. As for the experimental part: FIG. 5 is a graph depicting the results of heart, brain, muscle and liver glycogen content in wild type and Gbe1^ys/ys mice, and guaiacol-treated wild-type and Gbe1^ys/ys mice. Glycogen was measured after a 16 hour fast (n=4 for each treatment). Glycogen content is expressed as percent glucose mg/gram fresh tissue. Error bars represent the mean±SD, P<0.001 where indicated (*).
A mouse model of GBE deficiency created by knocking in via homologous recombination the most common human GBE1 mutation (p.Y329S) found in Ashkenazi Jewish patients has been developed by the inventors and designated Gbe1^ys/ys (Akman et al. 2015).
After one month of treatment, four mice from each group (untreated wild type and Gbe1^ys/ys mice and guaiacol-treated wild type and Gbe1^ys/ys mice) were sacrificed and tissue glycogen contents were measured as described by Pederson et al. 2004.

Data set [3] in a line: HPLC of AMP, ADP, ATP and adenosine in muscle extracts. The following applies: for decrease in adenosine levels: muscle. The format is in vivo, mouse. The text has this: FIG. 8 is a graph depicting results of high performance liquid chromatography analysis of adenosine in muscle of wild type and Gbe1^ys/ys mice, and guaiacol-treated wild type and Gbe1^ys/ys mice.
[…], the heterotrimeric protein AMPK is formed by α, β, and γ subunits. Each of these three subunits takes on a specific role in both the stability and activity of AMPK. (Stapleton et al. 1996). Specifically, the γ subunit includes four particular cystathionine beta synthase (CBS) domains giving AMPK its ability to sensitively detect shifts in the AMP: ATP ratio. The four CBS domains create two binding sites for AMP commonly referred to as Bateman domains. Binding of one AMP to a Bateman domain cooperatively increases the binding affinity of the second AMP to the other Bateman domain (Akman et al. 2007).

A further data set has as its system Gbe1^neo/− MEF. Nature of the data set: High throughput PAS-fluorescence screen of polyglucosan bodies in GBE-deficient MEF. The data set is classed as cell-based, mouse. How it is done: Skin fibroblasts from wild type or Gbe1^neo/− E17.5 embryos were cultured to establish the MEF cell line by methods known in the art (FIG. 2). Diastase-resistant PAS positive staining was used specifically for carbohydrate staining. After paraformaldehyde fixation, cells were washed with PBS and normal glycogen was degraded by alpha-amylase digestion. The residual polysaccharides and PG in MEF were treated with periodic acid to oxidize sugars to aldehydes, which react with the Schiff reagent and stain pink. Although PAS staining was very efficient to detect PG (see FIGS. 2A, 2B, 2C, 2E, and 2G), the IN Cell 2000 cell detection system relies on fluorescence staining. PAS staining itself is fluorescent due to pararosanilin reagents, such as Rhodamine and TRITC, which can be excited (400 nm) and emits light detectable in red range ([…]) (FIGS. 2D, 2F and 2H).
To set up the automated detection system, control Gbe1^+/+ and Gbe1^neo/− MEFs were plated at different density on 384-well plates in order to obtain optimal cell density. A second important optimization regarded the diastase digestion of normal glycogen, keeping in mind that PGBs are resistant to diastase digestion and longer incubation times and/or higher enzyme concentrations are needed to digest PG. […] After diastase digestion, they were stained with PAS, and, after brief nuclear staining with Hoechst, the plates were analyzed by IN Cell 2000, GE Healthcare (Piscataway, N.J.), a high-throughput imaging system capable of performing high-content analysis using a wide array of micro plates. […] Automated quantitative results were obtained in terms of relative fluorescence per cell. Relative fluorescence per positive cells were analyzed and its significance were determined by z score according to plate average or by B score if there is a positional effect related to row and column that occurs in multi well plate cell cultures (Brideau et al. 2003). […]
1500 cells were plated per well to 384-well plates. […] The following day the cells were stained and analyzed as set forth in Example 3.

The test system of data set [4] is HepG2 liver epithelial cell line. Nature of the data set: Glycogen content in HepG2 cells cultured with cobalt chloride. The data set is classed as cell-based. The note with it: DMEM supplemented with 150 μM cobalt chloride; results not shown. As for the experimental part:
(§2) One hit was obtained corresponding to a compound that decreased polyglucosan synthesis more than 50% at 6.75 μM concentration (FIG. 3). […] This compound identified was guaiacol and has been used as an expectorant and flavoring food additive but is no longer being marketed for medical purposes.

The nature of data set [5]: Tolerability: grip tests and weight gain or loss. The format is in vivo, mouse. The note with it: 22.5 mg/kg in drinking water. How it is done:
as §1

Data set [6] is described as follows: Glucose tolerance test (blood glucose). The format is in vivo, mouse. The following applies: after overnight fasting and glucose injection. As for the experimental part:
Blood glucose content was measured at times indicated in guaiacol-treated and untreated wild type and APBD (p.Y329s) mice. n=3 in each group.
After overnight fasting, mice were injected glucose and the blood glucose levels were measured.

The next data set has as its system MEF. Nature of the data set: Glycogen content of MEF grown in cobalt supplemented media. The data set is classed as cell-based, mouse. The note with it: n=3, FIG. 3B. How it is done: FIGS. 3A-3C show guaiacol decreases glycogen synthesis. […] FIG. 3C is a graph showing the results of relative glycogen content of cells grown in cobalt supplemented media after 3 days of guaiacol treatment at concentrations indicated on horizontal axis.
as §2

Data set [7] deals with AMP kinase alpha (AMPK-α). Nature of the data set: Western blot of AMP kinase Thr 172 phosphorylation. The following applies: tissue extracts of treated wild type and Gbe1^ys/ys mice, relative to total AMPK-α. The format is in vivo, mouse. The text has this: FIG. 7 is a Western blot of phospho AMPK-α and total AMPK in muscle extracts obtained from wild type and Gbe1^ys/ys mice, and guaiacol-treated wild type and Gbe1^ys/ys mice.
Glycogen synthesis and breakdown is regulated according to the energy state of the cell. When glucose is abundant amount of ATP is high and AMP kinase remains un-phosphorylated. However when glucose concentrations go down so do the ATP levels because it is being converted to ADP and AMP.

A further data set concerns GYS1. Nature of the data set: Western blot of GYS1 phosphorylation in muscle extracts after oral guaiacol. The format is in vivo, mouse. The note with it: wild type mice, 45-720 mg/kg oral gavage, muscle extracts two hours after administration. An excerpt:
FIG. 4 is a Western blot of GYS1 and GAPDH in muscle extracts obtained from wild type mice two hours after administration with guaiacol, suspended in water, in the indicated dosage amounts on the top panel by oral gavage.
Glycogen synthase is an allosteric enzyme that can be activated by glucose 6 phosphate or inactivated by phosphorylation of a serine residue on the enzyme. Thus, the phosphorylation status of GYS1 in muscle extracts which is the indicator of glycogen synthase activity was determined.
Wild type mice were administered guaiacol suspended in water at concentrations of 45, 90, 180, 360, and 720 mg/kg. Two hours after administration, muscle extracts were obtained and Western blot analysis of GYS1 was performed.

Setting [8] is: treated Gbe1^ys/ys mice, long-term treatment.
Where [9] appears, read: one month of treatment, 16 hour fast, n=4.

Entries after “also recorded” stand apart in the source; their conditions may differ.

Consider `COc1ccccc1O` [guaiacol], for which the “lifespan of treated mice” value in the data set with Gbe1^ys/ys mice [1] (Gbe1^ys/ys mice, guaiacol in drinking water, sacrificed at 24 months as required by protocol) was “up to 24 months”. Also, in the data set on Gbe1^ys/ys mice [1] (treated Gbe1^ys/ys mice), the “gait of treated mice” value is recorded as “spastic gait” and the “penile prolapse in male mice” value was “did not have penile prolapse; also recorded: preventing penile prolapse”. In addition, in the data set with Gbe1^ys/ys mice [1] (setting [8]), the “PG content in the liver” value is recorded as “decreased PG content”; the “polyglucosan in the muscle brain and heart” value was “slightly higher polyglucosan”. The “glycogen in brain, muscle and heart” value in the data set on Gbe1^ys/ys mice [2] (as restated in Example 7) is “increased”. Further, the “glycogen content in the brain and muscle compared to untreated Gbe1^ys/ys mice” value with Gbe1^ys/ys mice [2] (later treatments, treated Gbe1^ys/ys mice) is “slight increase”. In addition, in the data set with Gbe1^ys/ys mice [2] (setting [9]), the “glycogen content in brain heart and muscle” value is “did not change”; the “glycogen content of the liver” value is reported as “significant decrease; also recorded: decreased”. For the same molecule, the “AMP, ADP and ATP levels” value in [3] (muscle extracts, treated vs untreated wild type or Gbe1^ys/ys mice) is on record as “no significant difference”. For the same molecule, the “decrease in adenosine levels” value in data set [3] (Gbe1^ys/ys mice, n=4, p<0.03) was found to be 48%. Besides, the “decrease in adenosine levels” value in data set [3] (wild-type mice, n=4, p<0.02) turned out to be 53%. In the data set with Gbe1^neo/− MEF (6.75 μM, three days treatment, JHCCL screen), the “decrease of polyglucosan synthesis” value is “more than 50%”. For the same molecule, the “PAS stained granules in the cytosol (diastase treated)” value in the data set on Gbe1^neo/− MEF (10 μM guaiacol, MEF cultures, FIG. 3A) is “decreased PAS stained granules”. Besides, the “decrease of polyglucosan synthesis and accumulation” value in the data set with Gbe1^neo/− MEF (JHCCL screen, concentration not stated) was 50%. Moreover, the “glycogen content in HepG2” value in data set [4] is “decreased glycogen content”. In data set [5], the “effect on animal behavior (grip tests, weight gain or loss)” value is given as “did not adversely affect the animal's behavior”. Besides, in data set [6], the “duration of high blood glucose versus control mice” value is “remained high longer”. The “blood glucose level versus control mice” value in [6] (wild type and APBD (p.Y329s) mice, n=3) is given as “higher blood glucose; also recorded: increases blood glucose concentration”. Also, in the data set on MEF, the “glycogen content in MEF” value was “decrease of glycogen content”. Besides, the “Thr 172 phosphorylation of AMP kinase” value in [7] is recorded as “increased Thr 172 phosphorylation”. In addition, the “phosphorylation of GYS1 compared to total GYS1 protein” value in the data set on GYS1 is “increased”.

These data come from patent US10933031B2, “Use of guaiacol for the prevention and treatment of glycogen storage disease” (THE TRUSTEES OF COLUMBIA UNIVERSITY IN THE CITY OF NEW YORK, priority 2016, dated 2021).
